Laboratory results taken from patent US4673674A, “Diazepinoindoles useful for treating depression, schizophrenia, social withdrawal or anxiety and pharmaceutical compositions containing them” (Sandoz Pharmaceuticals Corp., priority 1984, dated 1987).
Read-outs that look alike come from different tables or passages of the source.

What was measured:
[1] = biological target: T1, 5-HT2 receptors in the rat frontal cortex (Rattus norvegicus, UniProt P14842); assay: inhibition of specific 3H-spiperone binding to 5-HT2 receptors in rat frontal cortex; conditions: rat frontal cortex membranes, 1 nM 3H-spiperone, 1 h at 37° C., pH 7.7
T1 construct: Fresh frontal cortex tissue from rat brain is homogenized; from tissue; host or cells: rat frontal cortex membranes
T1 sequence (P14842 whole entry): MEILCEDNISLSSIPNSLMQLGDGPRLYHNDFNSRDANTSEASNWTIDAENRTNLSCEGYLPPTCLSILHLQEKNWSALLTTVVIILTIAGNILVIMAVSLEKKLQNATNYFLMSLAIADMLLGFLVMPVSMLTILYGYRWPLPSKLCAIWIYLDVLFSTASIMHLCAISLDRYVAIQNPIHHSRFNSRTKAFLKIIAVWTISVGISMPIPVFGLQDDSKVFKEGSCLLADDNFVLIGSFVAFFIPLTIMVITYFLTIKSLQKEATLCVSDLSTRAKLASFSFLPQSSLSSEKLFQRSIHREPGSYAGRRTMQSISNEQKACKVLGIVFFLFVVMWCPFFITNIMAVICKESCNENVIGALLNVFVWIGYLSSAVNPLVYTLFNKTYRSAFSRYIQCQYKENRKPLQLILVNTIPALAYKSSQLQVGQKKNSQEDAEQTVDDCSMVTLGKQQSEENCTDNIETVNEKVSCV
Protocol: This test has been carried out as follows:
Fresh frontal cortex tissue from rat brain is homogenized in a 20 fold volume of Tris-HCl buffer (50 mM, pH 7.7, containing 4 mM CaCl2, 10 μM pargyline, and 0.1% ascorbic acid), and centrifuged. The pellets are resuspended in a 25 fold volume of the same buffer, incubated for 15 min at 37° C., and recentrifuged. The pellets are frozen at -20° C. and resuspended in a 360 fold volume of the same buffer as above before use for the binding experiment. The composition of the assay mixtures (total volume =2 ml) is as follows: 50 mM Tris-HCl pH 7,7, 4 mM CaCl2, 10 μM pargyline, 0.1% ascorbic acid, membranes corresponding to 5 mg of original tissue weight, and 1 nM ^3 H-spiperone. The assays for the determination of nonspecific binding additionally contain cinanserin in a concentration of 1 μM. […] After incubation for 1 hour at 37° C., the assay mixtures are rapidly filtered through Whatman GF/B filters and washed twice with 5 ml of ice cold incubation buffer.

[2] = test system: paradoxical sleep (PS); assay: reduction of paradoxical sleep (PS) in the 48 h sleep EEG in rats; format: in vivo; conditions: 3.2-32 mg/kg p.o.
Text: Kleinlogel "EEG in Drug Research" ed. by Hermann, Gustav Fischer Verlag, Stuttgart, N.Y., 75-88 (1982)].

[3] = test system: locomotion in mice; assay: inhibition of locomotion in mice (neuroleptic activity); format: in vivo, mice (male, OF-1); conditions: Mus musculus, po, read-out: EDmin (inhibition of locomotion)
Protocol: In this test groups of 3 male mice (18-24 g, OF-1, Sandoz Basle) received 3.2, 10, 32, 100 and 320 mg p.o. of the test drug.

[4] = biological target: T2, 3H-spiperone binding sites in the brain (calf brain striatal tissue) (Bos taurus, UniProt P20288); assay: inhibition of specific 3H-spiperone binding in calf brain striatal tissue; conditions: calf brain striatal membranes, 0.1 nM 3H-spiperone, 5×10^-7 M cinanserin, 40 minutes at room temperature
T2 construct: fresh calf brain striatal tissue was homogenized; from tissue; host or cells: calf brain striatal membranes
T2 sequence (P20288 whole entry): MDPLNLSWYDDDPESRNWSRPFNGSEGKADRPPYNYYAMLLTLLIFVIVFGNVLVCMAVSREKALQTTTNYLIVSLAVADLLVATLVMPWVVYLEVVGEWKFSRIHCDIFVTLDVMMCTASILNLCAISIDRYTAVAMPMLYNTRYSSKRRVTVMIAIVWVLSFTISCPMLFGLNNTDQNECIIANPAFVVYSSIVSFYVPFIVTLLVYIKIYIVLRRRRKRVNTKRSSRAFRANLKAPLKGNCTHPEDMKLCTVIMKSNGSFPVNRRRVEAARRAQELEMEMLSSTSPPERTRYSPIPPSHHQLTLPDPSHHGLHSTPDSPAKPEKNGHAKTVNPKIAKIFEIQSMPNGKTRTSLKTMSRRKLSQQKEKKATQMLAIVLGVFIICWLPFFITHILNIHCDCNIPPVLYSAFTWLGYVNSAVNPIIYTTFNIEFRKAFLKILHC

Compound: CN(C)CCC=C1c2ccccc2CCc2ccccc21 [amitriptyline, reference compound]
- IC50 [1]: 15 nM
- reduction of paradoxical sleep (PS) [2]: reduce further the paradoxical sleep (PS) without rebound

Compound: CN1CCc2c(-c3ccc(Cl)cc3)c3ccccc3n2CC1 [Example 5j]
- minimal effective dose ([3]; male mice, 1 hour after administration): 3.2 mg/kg
- IC50 [4]: 137 nM

Compound: CN1CCc2c(-c3ccccc3)c3ccccc3n2CC1 [Example 1, 2,3,4,5-Tetrahydro-3-methyl-11-phenyl-1H-[1,4]diazepino[1,7-a]indole]
- IC50 [1]: 1 to 10 nM

Compound: c1ccc(-c2c3n(c4ccccc24)CCNCC3)cc1 [Example 2, 2,3,4,5,-Tetrahydro-11-phenyl-1H-[1,4]diazepino[1,7-a]indole]
- IC50 [1]: 1 to 10 nM

Compound: C=CCN1CCc2c(-c3ccccc3)c3ccccc3n2CC1 [Example 3, 3-Allyl-2,3,4,5-tetrahydro-11-phenyl-1H-[1,4]diazepino-[1,7-a]indole]
- IC50 [1]: 1 to 10 nM

Compound: c1ccc(-c2c3n(c4ccccc24)CCN(CC2CC2)CC3)cc1 [Example 4, 3-Cyclopropylmethyl-2,3,4,5-tetrahydro-11-phenyl-1H-[1,4]diazepino[1,7-a]indole]
- IC50 [1]: 1 to 10 nM

Compound: CSc1ccc2c(c1)N(CCC1CCCCN1C)c1ccccc1S2 (stereo not drawn) [thioridazine, reference compound]
- minimal effective dose ([3]; 1 h): 10 to 32 mg/kg
